Experimental data reported in patent US10336792B2, “Antimicrobial peptide dendrimers” (priority 2014, dated 2019).
≈ marks a conversion by molar mass, not a printed value. Positions of bridges follow the written chain, without caps; N, C: chain ends. Non-standard residues stand in square brackets, D forms with d. Residues, ends and D or L forms follow the SMILES beside them. Groups on a side chain read outwards from the residue. Chains are numbered I, II in the order given. *: point of attachment. Decanoyl = CCCCCCCCCC(=O)*; Orn = NCCC[C@H](N)C(=O)O; Dab = NCC[C@H](N)C(=O)O

How the values were obtained:
[1] = tested on: P. aeruginosa PA01 (WT); type: cell-based, Pseudomonas aeruginosa; conditions: WT
Procedure: (§1) Antimicrobial activity was assayed against P. aeruginosa PA01 (WT), P. aeruginosa PT1482 (A-), PT1485 (A-B-), PT1149 (A-B-C-algC), PT331 (Z61) (LPS mutants), P. aeruginosa PEJ2.6, PEJ9.1, ZEM1.A, ZEM9.A (clinical isolates from Université de Genève/Centre Médical Universitaire), Burkholderia cenocepacia (B. ceno), Staphylococcus aureus (S. aureus, MRSA strain) and Acinetobacter baumannii (A. baum) (clinical isolates from Université de Genève/Centre Médical Universitaire). To determine the minimal inhibitory concentration (MIC), microdilution broth method was used. A colony of bacteria was grown in MH-medium overnight at 37° C. The samples were prepared as stock solutions of 8 mg mL^−1 in H2O, diluted to the beginning concentration of 32, 64, 128 or 256 μg/mL in 300 μL MH-medium, added to the first well of 96-well microtiterplate (TPP, untreated) and diluted serially by ½. The concentration of the bacteria was quantified by measuring absorbance at 600 nm and diluted to OD600=0.022 in MH-medium. The sample solutions (150 μL) were mixed with 4 μL diluted bacterial suspension with a final inoculation of about of 5×10^5 CFU. The plates were incubated at 37° C. until satisfactory growth (˜18 h). For each test, two columns of the plate were kept for sterility control (SC, broth only) and growth control (GC, broth with bacterial inoculums, no antibiotics). The minimal inhibitory concentration (MIC) was defined as the lowest concentration of the antimicrobial substance (peptide dendrimer) that inhibited visible growth of the tested bacteria with the unaided eye. For microbiological study Polymyxin was used as references.

[2] = tested on: PAO1; type: cell-based, Pseudomonas aeruginosa; conditions: PAO1
Procedure: as §1

[3] = tested on: P. aeruginosa PEJ2.6, PEJ9.1, ZEM1.A, ZEM9.A (clinical isolates); type: cell-based, Pseudomonas aeruginosa; conditions: PEJ2.6, PEJ9.1, ZEM1.A, ZEM9.A (clinical isolates)
Procedure: as §1
(§2) Ten of the most promising compounds (FIG. 5) were tested for their efficiency against four clinical isolates of P. aeruginosa (ZEM9.A, ZEM1.A, PEJ2.6, PEJ9.1), one S. aureus (COL, MRSA reference strain) and one A. baumannii strain. For the experiments in Genève the peptide dendrimers and reference compounds (polymyxin) were dissolved in PBS and the assay was carried out in Müller-Hinton (MH) broth with a two-fold dilution.

[4] = tested on: Acinetobacter baumannii; type: cell-based
Procedure: as §1, §2

[5] = tested on: Staphylococcus aureus (COL, MRSA reference strain); type: cell-based; conditions: COL, reference strain
Procedure: as §1, §2

[6] = tested on: Pseudomonas aeruginosa (strain PA01); experiment: microbe, parasite or virus in culture; type: cell-based; conditions: LB medium, serial 2/3 dilution, 37 °C, 18-24 h
In short: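 Broth microdilution MIC against P. aeruginosa PAO1 in LB: peptides serially diluted by ⅔, bacteria added at OD600 0.001 and incubated 18–24 h at 37 °C. MTT added; MIC is the lowest concentration preventing visible growth.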

[7] = tested on: Bacillus subtilis (strain BR151); type: cell-based; conditions: LB medium
In short: (§3)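 Broth microdilution MIC in LB; overnight cultures diluted to OD600 0.001 and mixed 1:1 with ⅔-serially diluted samples (stock 1 mg mL^−1 in H2O), 37° C for 18-24 h. MTT (0.1%) added; MIC read by eye as lowest concentration inhibiting visible growth (yellow).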

[8] = tested on: human red blood cells (hRBC); experiment: Haemolysis assay, minimal haemolytic concentration (MHC); type: cell-based; conditions: hRBC in PBS pH 7.4, 4 h, room temperature
Procedure: To determine the minimal haemolytic concentration (MHC) stock solutions of 8 mg/mL of the peptide dendrimers in H2O were prepared and 50 μL were diluted serially by ½ in 50 μL PBS (pH 7.4) in 96-well plate (Cornstar or Nunc, polystyrene, untreated). Human red blood cells (hRBC) were obtained by centrifuging 1.5 mL of whole blood from friendly donors at 3000 rpm for 15 minutes. Plasma was discarded and the pellet was re-suspended in a 15 mL falcon tube up to 5 mL of PBS. The washing was repeated three times and the remaining pellet was re-suspended in 10 mL of PBS at a final hRBC concentration of 5%. The hRBC suspension (50 μL) was added to each well and the plate was incubated at room temperature for 4 hours. Minimal haemolytic concentration (MHC) end points were determined by visual inspection of the wells after the incubation period. Controls on each plate included a blank medium control (50 μl PBS+50 μl of hRBC suspension) and a haemolytic activity control (mQ-deionized water 50 μL+50 μL hRBC suspension).
MIC (minimal inhibitory concentration) and MHC (minimal haemolytic concentration, determined on human red blood cells (hRBC)) values are given in μg/mL. When no detectable haemolytic activity was observed, the last measured concentration was used for calculation of the therapeutic index. TI (therapeutic index)=MHC (μg/ml)/geometric mean of MIC (μg/ml). Larger values indicate greater antimicrobial specificity.

[9] = tested on: Escherichia coli (strain DH5α); type: cell-based; conditions: LB medium
In short: as §3

Compound: CCCCCCCCCC(=O)NCCCC[C@H](NC(=O)[C@H](CC(C)C)NC(=O)[C@H](CCCCN)NC(=O)[C@H](CCCCNC(=O)[C@H](CC(C)C)NC(=O)[C@H](CCN)NC(=O)[C@H](CCCCNC(=O)[C@H](Cc1ccccc1)NC(=O)[C@@H](N)CCCN)NC(=O)[C@H](Cc1ccccc1)NC(=O)[C@@H](N)CCCN)NC(=O)[C@H](CC(C)C)NC(=O)[C@H](CCN)NC(=O)[C@H](CCCCNC(=O)[C@H](Cc1ccccc1)NC(=O)[C@@H](N)CCCN)NC(=O)[C@H](Cc1ccccc1)NC(=O)[C@@H](N)CCCN)C(N)=O [TNS-122, (OrnF)4(KDabL)2(KKLK-CO(CH2)8CH3] (I: H-[Orn]FK([Phe-Orn])[Dab]LKKLK(Decanoyl)-NH2 / II: H-[Orn]FK([Phe-Orn])[Dab]L; amide I:6-II:C; N-terminus assumed)
- MIC (MH) [1]: 2 µg/mL (≈ 0.834 µM)
- MIC PAO1 [1]: 4 (8) μg/mL
- MIC (MH + 30% human serum) [2]: 8 µg/mL
- MIC P. aeruginosa MDR clinical isolate PEJ2.6 [3]: 4 µg/mL (≈ 1.67 µM)
- MIC P. aeruginosa MDR clinical isolate PEJ9.1 [3]: 32 µg/mL (≈ 13.3 µM)
- MIC P. aeruginosa MDR clinical isolate ZEM1A [3]: 4 µg/mL (≈ 1.67 µM)
- MIC P. aeruginosa MDR clinical isolate ZEM9A [3]: 8 µg/mL (≈ 3.34 µM)
- MIC A. baumannii ATCC19606 [4]: 8 to 16 µg/mL
- MIC S. aureus COL [5]: 8 to 16 µg/mL

Compound: CC(C)C[C@H](NC(=O)[C@H](CCCCN)NC(=O)[C@H](CCCCNC(=O)[C@H](CC(C)C)NC(=O)[C@H](CCCCN)NC(=O)[C@H](CCCCNC(=O)[C@H](CC(C)C)NC(=O)[C@H](CCCCN)NC(=O)[C@@H](N)CCCCN)NC(=O)[C@H](CC(C)C)NC(=O)[C@H](CCCCN)NC(=O)[C@@H](N)CCCCN)NC(=O)[C@H](CC(C)C)NC(=O)[C@H](CCCCN)NC(=O)[C@H](CCCCNC(=O)[C@H](CC(C)C)NC(=O)[C@H](CCCCN)NC(=O)[C@@H](N)CCCCN)NC(=O)[C@H](CC(C)C)NC(=O)[C@H](CCCCN)NC(=O)[C@@H](N)CCCCN)C(N)=O [MSt-119, (KKL)4(KKL)2(KKL)] (I: H-KKLK([Leu-Lys-Lys])KLKKL-NH2 / II: H-KKLK([Leu-Lys-Lys])KL; amide I:7-II:C)
- MIC P. aeruginosa PAO1 [6]: 3 µg/mL (≈ 1.15 µM)
- MIC B. subtilis BR151 [7]: 20 µg/mL (≈ 7.68 µM)
- MHC (minimal haemolytic concentration) [8]: 677 µg/mL

Compound: (KLL)4(KKLL)2(KKLL) [MIS-02]
- MIC P. aeruginosa PAO1 [6]: 3 µg/mL
- MIC B. subtilis BR151 [7]: 1 µg/mL
- MHC (minimal haemolytic concentration) [8]: 15 µg/mL

Compound: CCCCCCCCCC(=O)NCCCC[C@H](NC(=O)[C@H](CC(C)C)NC(=O)[C@H](CCCCN)NC(=O)[C@H](CCCCNC(=O)[C@H](Cc1ccccc1)NC(=O)[C@H](CCN)NC(=O)[C@H](CCCCNC(=O)[C@H](CC(C)C)NC(=O)[C@@H](N)CCCN)NC(=O)[C@H](CC(C)C)NC(=O)[C@@H](N)CCCN)NC(=O)[C@H](Cc1ccccc1)NC(=O)[C@H](CCN)NC(=O)[C@H](CCCCNC(=O)[C@H](CC(C)C)NC(=O)[C@@H](N)CCCN)NC(=O)[C@H](CC(C)C)NC(=O)[C@@H](N)CCCN)C(N)=O [TNS-123, (OrnL)4(KDabF)2(KKLK-CO(CH2)8CH3)] (I: H-[Orn]LK([Leu-Orn])[Dab]FKKLK(Decanoyl)-NH2 / II: H-[Orn]LK([Leu-Orn])[Dab]F; amide I:6-II:C; N-terminus assumed)
- MIC (MH) [1]: 2 µg/mL (≈ 0.859 µM)
- MIC PAO1 [1]: 4 to 8 µg/mL
- MIC (MH + 30% human serum) [2]: 8 to 16 µg/mL
- MIC P. aeruginosa MDR clinical isolate PEJ2.6 [3]: 16 µg/mL (≈ 6.87 µM)
- MIC P. aeruginosa MDR clinical isolate PEJ9.1 [3]: >64 µg/mL
- MIC P. aeruginosa MDR clinical isolate ZEM1A [3]: 4 µg/mL (≈ 1.72 µM)
- MIC P. aeruginosa MDR clinical isolate ZEM9A [3]: 8 µg/mL (≈ 3.43 µM)
- MIC A. baumannii ATCC19606 [4]: 32 µg/mL (≈ 13.7 µM)
- MIC S. aureus COL [5]: 32 to 64 µg/mL

Compound: CCCCCCCCCC(=O)NCCCC[C@H](NC(=O)[C@H](CC(C)C)NC(=O)[C@H](CCCCN)NC(=O)[C@H](CCCCNC(=O)[C@H](CC(C)C)NC(=O)[C@H](CCN)NC(=O)[C@H](CCCCNC(=O)[C@H](Cc1ccccc1)NC(=O)[C@@H](N)CCCNC(=N)N)NC(=O)[C@H](Cc1ccccc1)NC(=O)[C@@H](N)CCCNC(=N)N)NC(=O)[C@H](CC(C)C)NC(=O)[C@H](CCN)NC(=O)[C@H](CCCCNC(=O)[C@H](Cc1ccccc1)NC(=O)[C@@H](N)CCCNC(=N)N)NC(=O)[C@H](Cc1ccccc1)NC(=O)[C@@H](N)CCCNC(=N)N)C(N)=O [TNS-124, (RF)4(KDabL)2(KKLK-CO(CH2)8CH3)] (I: H-RFK([Phe-Arg])[Dab]LKKLK(Decanoyl)-NH2 / II: H-RFK([Phe-Arg])[Dab]L; amide I:6-II:C; N-terminus assumed)
- MIC (MH) [1]: 4 to 8 µg/mL
- MIC PAO1 [1]: 8 µg/mL (≈ 3.12 µM)
- MIC (MH + 30% human serum) [2]: 16 to 32 µg/mL
- MIC P. aeruginosa MDR clinical isolate PEJ2.6 [3]: 8 µg/mL (≈ 3.12 µM)
- MIC P. aeruginosa MDR clinical isolate PEJ9.1 [3]: 32 µg/mL (≈ 12.5 µM)
- MIC P. aeruginosa MDR clinical isolate ZEM1A [3]: 4 to 8 µg/mL
- MIC P. aeruginosa MDR clinical isolate ZEM9A [3]: 16 to 32 µg/mL
- MIC A. baumannii ATCC19606 [4]: 8 to 16 µg/mL
- MIC S. aureus COL [5]: 8 µg/mL (≈ 3.12 µM)

Compound: CCCCCCCCCC(=O)NCCCC[C@H](NC(=O)[C@H](CC(C)C)NC(=O)[C@H](CCCCN)NC(=O)[C@H](CCCCNC(=O)[C@H](CC(C)C)NC(=O)[C@H](CCCCN)NC(=O)[C@H](CCCCNC(=O)[C@H](CC(C)C)NC(=O)[C@@H](N)CCCCN)NC(=O)[C@H](CC(C)C)NC(=O)[C@@H](N)CCCCN)NC(=O)[C@H](CC(C)C)NC(=O)[C@H](CCCCN)NC(=O)[C@H](CCCCNC(=O)[C@H](CC(C)C)NC(=O)[C@@H](N)CCCCN)NC(=O)[C@H](CC(C)C)NC(=O)[C@@H](N)CCCCN)C(N)=O [Compound G2KLC10, (KL)4(KKL)2(KKL-CO(CH2)8CH3)] (I: H-KLK([Leu-Lys])KLKKLK(Decanoyl)-NH2 / II: H-KLK([Leu-Lys])KL; amide I:6-II:C; N-terminus assumed)
- MIC (MH) [1]: 4 µg/mL (≈ 1.69 µM)
- MIC PAO1 [1]: 8 µg/mL (≈ 3.37 µM)
- MIC (MH + 30% human serum) [2]: 8 to 16 µg/mL
- MIC P. aeruginosa MDR clinical isolate PEJ2.6 [3]: 8 µg/mL (≈ 3.37 µM)
- MIC P. aeruginosa MDR clinical isolate PEJ9.1 [3]: 64 µg/mL (≈ 27 µM)
- MIC P. aeruginosa MDR clinical isolate ZEM1A [3]: 4 µg/mL (≈ 1.69 µM)
- MIC A. baumannii ATCC19606 [4]: 16 µg/mL (≈ 6.74 µM)
- MIC S. aureus COL [5]: 64 µg/mL (≈ 27 µM)

Compound: (DabL)8(KDabW)4(KDabW)2(KDabL) [MSt-204]
- MIC P. aeruginosa PAO1 [6]: 3 µg/mL
- MIC B. subtilis BR151 [7]: 2 µg/mL
- MIC E. coli DH5α [9]: 2 µg/mL
- MHC (minimal haemolytic concentration) [8]: 146 µg/mL

Compound: (LA)8(KLK)4(KLA)2(KKL) [MSt-120]
- MIC P. aeruginosa PAO1 [6]: 14 µg/mL
- MIC E. coli DH5α [9]: considerably less active
- MHC (minimal haemolytic concentration) [8]: 584 µg/mL
